Test results reported in patent US11840686B2, “Modulation of prekallikrein (PKK) expression” (Ionis Pharmaceuticals, Inc., priority 2013, dated 2023).
Strand notation (5' to 3'): a small letter for the sugar, then the base; units joined by * are phosphorothioate-linked, units joined directly phosphodiester-linked; [ ] holds rarer units or linkages, { } end groups; capitals alone tell only the bases. e = 2'-O-(2-methoxyethyl) (MOE); [5mC] = 5-methylcytosine; d = 2'-deoxy (DNA)

Key:
human PKK mRNA [1] = test: Antisense inhibition of human PKK mRNA in HepaRG cells, 5,000 nM (Example 2); format: cell-based
In short: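 Chimeric MOE gapmers with full phosphorothioate backbones were tested once at 5,000 nM in electroporated HepaRG cells. After about 24 hours, quantitative PCR measured PKK mRNA relative to untreated control cells.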

human PKK mRNA [2] = test: Dose-dependent antisense inhibition of human PKK in HepaRG cells, 0.19-5.00 uM (Example 5); format: cell-based
Experimental: Cells were plated at a density of 20,000 cells per well and transfected using electroporation with 0.19 μM, 0.56 μM, 1.67 μM, and 5.00 μM concentrations of antisense oligonucleotide. After a treatment period of approximately 16 hours, RNA was isolated from the cells and PKK mRNA levels were measured by quantitative real-time PCR. Human PKK primer probe set RTS3454 was used to measure mRNA levels. PKK mRNA levels were adjusted according to total RNA content, as measured by RIBOGREEN®. The antisense oligonucleotides were tested in a series of experiments that had similar culture conditions.
The half maximal inhibitory concentration (IC50) of each oligonucleotide is also presented.

[3] = HepaRG cells, electroporation, approximately 16 hours, Table 35
[4] = HepaRG cells, electroporation, approximately 16 hours, Table 41
[5] = 4 point dose response, HepaRG cells, Table 41
[6] = HepaRG cells, electroporation, approximately 16 hours, Table 37
[7] = 4 point dose response, HepaRG cells, Table 37
[8] = HepaRG cells, electroporation, approximately 16 hours, Table 40
[9] = Table 34, HepaRG, electroporation, ~16 h
[10] = HepaRG cells, electroporation, approximately 16 hours, Table 36
[11] = HepaRG cells, electroporation, approximately 16 hours, Table 38

547340 (antisense e[5mC]*eT*e[5mC]*e[5mC]*eT*d[5mC]*dT*d[5mC]*dA*dT*dA*dT*d[5mC]*dA*dA*e[5mC]*eT*e[5mC]*e[5mC]*eT) [compound 547340]
% inhibition (human PKK mRNA [1]; HepaRG cells, electroporation with 5,000 nM antisense oligonucleotide, approximately 24 hours, PKK mRNA by RT-PCR (RTS3454), relative to untreated control cells, Table 6 experiment): 93% | percent inhibition of PKK at 0.19 μM (human PKK mRNA [2]; [3]): 46% | percent inhibition of PKK at 0.56 μM (human PKK mRNA [2]; [3]): 79% | percent inhibition of PKK at 1.67 μM (human PKK mRNA [2]; [3]): 88% | percent inhibition of PKK at 0.19 0μM (human PKK mRNA [2]; [4]): 34% | percent inhibition of PKK at 0.56 0μM (human PKK mRNA [2]; [4]): 84% | percent inhibition of PKK at 1.67 1μM (human PKK mRNA [2]; [4]): 96% | IC50 (human PKK mRNA [2]; 4 point dose response, HepaRG cells, Table 35): 200 nM | IC50 (human PKK mRNA [2]; [5]): 300 nM

547622 (antisense eG*eT*e[5mC]*eA*e[5mC]*dT*dG*dT*dA*d[5mC]*d[5mC]*dT*dA*dT*dA*eA*e[5mC]*eT*e[5mC]*eT) [compound 547622]
% inhibition (human PKK mRNA [1]; human PKK mRNA in HepaRG cells, 5-10-5 gapmers, Table 14): 88% | percent inhibition of PKK at 0.19 μM (human PKK mRNA [2]; [6]): 0% | percent inhibition of PKK at 0.56 μM (human PKK mRNA [2]; [6]): 47% | percent inhibition of PKK at 1.67 μM (human PKK mRNA [2]; [6]): 79% | percent inhibition of PKK at 5.00 μM (human PKK mRNA [2]; [6]): 90% | IC50 (human PKK mRNA [2]; [7]): 900 nM

547722 (e[5mC]*eT*e[5mC]*e[5mC]*eA*dG*dT*d[5mC]*dA*d[5mC]*d[5mC]*dA*d[5mC]*d[5mC]*dA*eT*eT*eG*e[5mC]*e[5mC]; antisense) [compound 547722]
% inhibition (human PKK mRNA [1]; HepaRG cells, 5,000 nM antisense oligonucleotide, 5-10-5 gapmers, Table 16): 80% | percent inhibition of PKK at 0.19 μM (human PKK mRNA [2]; [8]): 0% | percent inhibition of PKK at 0.56 μM (human PKK mRNA [2]; [8]): 15% | percent inhibition of PKK at 1.67 μM (human PKK mRNA [2]; [8]): 32% | percent inhibition of PKK at 5.00 μM (human PKK mRNA [2]; [8]): 73% | IC50 (human PKK mRNA [2]; 4 point dose response, HepaRG cells, Table 40): 2400 nM

547445 (antisense eG*e[5mC]*e[5mC]*eA*e[5mC]*dT*dA*dT*dA*dG*dA*dT*dG*d[5mC]*dG*e[5mC]*e[5mC]*eA*eA*eA) [compound 547445]
% inhibition (human PKK mRNA [1]; Table 8, HepaRG cells, electroporation with 5,000 nM antisense oligonucleotide, approx. 24 hours, PKK mRNA by RT-PCR (RTS3454), relative to untreated control cells): 97% | percent inhibition of PKK at 5.00 μM (human PKK mRNA [2]; [4]): 91% | percent inhibition of PKK at 0.19 0μM (human PKK mRNA [2]; [4]): 80% | percent inhibition of PKK at 0.56 0μM (human PKK mRNA [2]; [4]): 87% | percent inhibition of PKK at 1.67 1μM (human PKK mRNA [2]; [4]): 98% | IC50 (human PKK mRNA [2]; [5]): < 200 nM | percent inhibition of PKK at 0.19 μM (human PKK mRNA [2]; [9]): 41% | percent inhibition of PKK at 0.56 μM (human PKK mRNA [2]; [9]): 75% | percent inhibition of PKK at 1.67 μM (human PKK mRNA [2]; [9]): 82% | percent inhibition of PKK at 5.00 μM (human PKK mRNA [2]; [9]): 88% | IC50 (human PKK mRNA [2]; Table 34, PKK mRNA, HepaRG, electroporation, ~16 h): 200 nM

546833 (eA*e[5mC]*eT*e[5mC]*eT*dA*dA*d[5mC]*dA*dG*dT*dA*dT*d[5mC]*dA*e[5mC]*eT*eG*eT*eA; antisense) [compound 546833]
% inhibition (human PKK mRNA [1]; Table 13, human PKK mRNA in HepaRG cells, 5-10-5 gapmers): 90% | percent inhibition of PKK at 0.19 μM (human PKK mRNA [2]; [10]): 8% | percent inhibition of PKK at 0.56 μM (human PKK mRNA [2]; [10]): 33% | percent inhibition of PKK at 1.67 μM (human PKK mRNA [2]; [10]): 74% | percent inhibition of PKK at 5.00 μM (human PKK mRNA [2]; [10]): 94% | IC50 (human PKK mRNA [2]; 4 point dose response, HepaRG cells, Table 36): 900 nM

547637 (eA*eG*eT*eA*eT*d[5mC]*dA*d[5mC]*dT*dG*dT*dA*d[5mC]*dT*dA*eG*eT*eT*eT*eT; antisense) [compound 547637]
% inhibition (human PKK mRNA [1]; human PKK mRNA, HepaRG cells, 5-10-5 motif oligonucleotides targeting SEQ ID NO: 1 and 10): 88% | percent inhibition of PKK at 0.19 μM (human PKK mRNA [2]; [6]): 10% | percent inhibition of PKK at 0.56 μM (human PKK mRNA [2]; [6]): 21% | percent inhibition of PKK at 1.67 μM (human PKK mRNA [2]; [6]): 36% | percent inhibition of PKK at 5.00 μM (human PKK mRNA [2]; [6]): 82% | IC50 (human PKK mRNA [2]; [7]): 1800 nM

547294 (antisense e[5mC]*eT*e[5mC]*eA*eT*d[5mC]*dT*dG*dG*d[5mC]*dA*dG*dT*dA*dT*eT*eG*eG*eG*e[5mC]) [compound 547294]
% inhibition (human PKK mRNA [1]; HepaRG cells, electroporation with 5,000 nM antisense oligonucleotide, approximately 24 hours, PKK mRNA by RT-PCR (RTS3454), relative to untreated control cells, Table 5 experiment): 85% | percent inhibition of PKK at 0.19 μM (human PKK mRNA [2]; [11]): 28% | percent inhibition of PKK at 0.56 μM (human PKK mRNA [2]; [11]): 59% | percent inhibition of PKK at 1.67 μM (human PKK mRNA [2]; [11]): 87% | percent inhibition of PKK at 5.00 μM (human PKK mRNA [2]; [11]): 86% | IC50 (human PKK mRNA [2]; 4 point dose response, HepaRG cells, Table 38): 400 nM | percent inhibition of PKK mRNA, 0.19 μM (human PKK mRNA [2]; HepaRG cells, 0.19 μM antisense oligonucleotide): 4% | percent inhibition of PKK mRNA, 0.56 μM (human PKK mRNA [2]; HepaRG cells, 0.56 μM antisense oligonucleotide): 70% | percent inhibition of PKK mRNA, 1.67 μM (human PKK mRNA [2]; HepaRG cells, 1.67 μM antisense oligonucleotide): 84% | percent inhibition of PKK mRNA, 5.00 μM (human PKK mRNA [2]; HepaRG cells, 5.00 μM antisense oligonucleotide): 91% | IC50 (human PKK mRNA [2]; HepaRG cells, 0.19-5.00 μM): 600 nM
